Experimental data taken from ChEMBL document CHEMBL3046091, “Synthesis and antimicrobial activities of 2-azetidinyl-4-quinazolinone derivatives of diclofenac analogue” (2011).

Key:
Format in all cases: functional
Staphylococcus aureus [1] = assay: Antibacterial activity against Staphylococcus aureus ATCC 9144 at 100 ug/ml by cup-plate method; conditions: read-out: IZ
Pseudomonas aeruginosa [2] = assay: Antibacterial activity against Pseudomonas aeruginosa ATCC 9027 at 50 to 100 ug/ml by cup-plate method
Bacillus subtilis [3] = assay: Antibacterial activity against Bacillus subtilis ATCC 6633 at 100 ug/ml by cup-plate method; conditions: read-out: IZ
Bacillus subtilis [4] = assay: Antibacterial activity against Bacillus subtilis ATCC 6633 at 50 ug/ml by cup-plate method; conditions: read-out: IZ
Pseudomonas aeruginosa [5] = assay: Antibacterial activity against Pseudomonas aeruginosa ATCC 9027 at 50 ug/ml by cup-plate method; conditions: read-out: IZ
Staphylococcus aureus [6] = assay: Antibacterial activity against Staphylococcus aureus ATCC 9144 at 50 ug/ml by cup-plate method; conditions: read-out: IZ
Escherichia coli [7] = assay: Antibacterial activity against Escherichia coli ATCC 25922 at 100 ug/ml by cup-plate method; conditions: read-out: IZ
Candida albicans [8] = assay: Antifungal activity against Candida albicans ATCC 10231 at 50 ug/ml by cup-plate method; conditions: read-out: IZ
Escherichia coli [9] = assay: Antibacterial activity against Escherichia coli ATCC 25922 at 50 to 100 ug/ml by cup-plate method
Candida albicans [10] = assay: Antifungal activity against Candida albicans ATCC 10231 at 100 ug/ml by cup-plate method; conditions: read-out: IZ
Staphylococcus aureus [11] = assay: Antibacterial activity against Staphylococcus aureus ATCC 9144 at 50 to 100 ug/ml by cup-plate method
Pseudomonas aeruginosa [12] = assay: Antibacterial activity against Pseudomonas aeruginosa ATCC 9027 at 100 ug/ml by cup-plate method; conditions: read-out: IZ
Bacillus subtilis [13] = assay: Antibacterial activity against Bacillus subtilis ATCC 6633 at 50 to 100 ug/ml by cup-plate method
Escherichia coli [14] = assay: Antibacterial activity against Escherichia coli ATCC 25922 at 50 ug/ml by cup-plate method; conditions: read-out: IZ

| Compound | zone of inhibition at 100 µg/mL (Staphylococcus aureus [1]) [mm] | Activity (Pseudomonas aeruginosa [2]) [%] | zone of inhibition at 100 µg/mL (Bacillus subtilis [3]) [mm] | zone of inhibition at 50 µg/mL (Bacillus subtilis [4]) [mm] | zone of inhibition at 50 µg/mL (Pseudomonas aeruginosa [5]) [mm] | zone of inhibition at 50 µg/mL (Staphylococcus aureus [6]) [mm] | zone of inhibition at 100 µg/mL (Escherichia coli [7]) [mm] | zone of inhibition at 50 µg/mL (Candida albicans [8]) [mm] | Activity (Escherichia coli [9]) [%] | zone of inhibition at 100 µg/mL (Candida albicans [10]) [mm] | Activity (Staphylococcus aureus [11]) [%] | zone of inhibition at 100 µg/mL (Pseudomonas aeruginosa [12]) [mm] | Activity (Bacillus subtilis [13]) [%] | zone of inhibition at 50 µg/mL (Escherichia coli [14]) [mm] |
| --- | --- | --- | --- | --- | --- | --- | --- | --- | --- | --- | --- | --- | --- | --- |
| O=c1c2cc(Br)ccc2nc(Cc2ccccc2Nc2c(Cl)cccc2Cl)n1-c1ccc(/N=C/c2ccccc2O)cc1 | 5 | 38.83 | 5 | 3 | 2 | 3 | 5 | 0 | 36.74 | 1 | 42.87 | 4 | 36 | 3 |
| O=c1c2cc(Br)ccc2nc(Cc2ccccc2Nc2c(Cl)cccc2Cl)n1-c1ccc(/N=C/c2cccc([N+](=O)[O-])c2)cc1 | 3 | 33.92 | 3 | 2 | 1 | 1 | 3 | 1 | 28.39 | 2 | 29.73 | 3 | 24.99 | 1 |
| O=c1c2cc(Br)ccc2nc(Cc2ccccc2Nc2c(Cl)cccc2Cl)n1-c1ccc(/N=C/c2ccc(O)cc2)cc1 | 4 | 44.55 | 4 | 2 | 2 | 3 | 4 | 0 | 31.5 | 1 | 34.85 | 5 | 30.5 | 2 |
| O=c1c2cc(Br)ccc2nc(Cc2ccccc2Nc2c(Cl)cccc2Cl)n1-c1ccc(/N=C/c2ccccc2Cl)cc1 | 6 | 44.44 | 6 | 3 | 3 | 3 | 5 | 1 | 37.56 | 2 | 50.98 | 5 | 42.68 | 3 |
| O=c1c2cc(Br)ccc2nc(Cc2ccccc2Nc2c(Cl)cccc2Cl)n1-c1ccc(/N=C/c2ccc(Cl)cc2)cc1 | 6 | 46.93 | 9 | 5 | 3 | 4 | 7 | 2 | 49.68 | 4 | 50.88 | 6 | 59.79 | 5 |
| COc1ccc(/C=N/c2ccc(-n3c(Cc4ccccc4Nc4c(Cl)cccc4Cl)nc4ccc(Br)cc4c3=O)cc2)cc1 | 7 | 52.88 | 9 | 5 | 3 | 4 | 9 | 2 | 64.33 | 3 | 53.85 | 6 | 63.91 | 5 |
| COc1cc(/C=N/c2ccc(-n3c(Cc4ccccc4Nc4c(Cl)cccc4Cl)nc4ccc(Br)cc4c3=O)cc2)cc(OC)c1OC | 6 | 47.09 | 8 | 4 | 2 | 3 | 7 | 1 | 50 | 2 | 50.98 | 5 | 53.33 | 4 |
| O=c1c2cc(Br)ccc2nc(Cc2ccccc2Nc2c(Cl)cccc2Cl)n1-c1ccc(/N=C/c2ccccc2[N+](=O)[O-])cc1 | 3 | 35.33 | 5 | 3 | 2 | 2 | 4 | 1 | 32.65 | 2 | 28.43 | 4 | 36 | 2 |
